Measured values: US12157741B2, “Macrocyclic inhibitors of DYRK1A” (DANA-FARBER CANCER INSTITUTE, INC., priority 2018, dated 2024)

Tests used:
Format in all cases: binding
Settings in all cases: compound 1 uM
various enzymes [1] = target: T1, various enzymes (Homo sapiens, UniProt Q9NRM7)
T1 sequence (Q9NRM7 1-1088): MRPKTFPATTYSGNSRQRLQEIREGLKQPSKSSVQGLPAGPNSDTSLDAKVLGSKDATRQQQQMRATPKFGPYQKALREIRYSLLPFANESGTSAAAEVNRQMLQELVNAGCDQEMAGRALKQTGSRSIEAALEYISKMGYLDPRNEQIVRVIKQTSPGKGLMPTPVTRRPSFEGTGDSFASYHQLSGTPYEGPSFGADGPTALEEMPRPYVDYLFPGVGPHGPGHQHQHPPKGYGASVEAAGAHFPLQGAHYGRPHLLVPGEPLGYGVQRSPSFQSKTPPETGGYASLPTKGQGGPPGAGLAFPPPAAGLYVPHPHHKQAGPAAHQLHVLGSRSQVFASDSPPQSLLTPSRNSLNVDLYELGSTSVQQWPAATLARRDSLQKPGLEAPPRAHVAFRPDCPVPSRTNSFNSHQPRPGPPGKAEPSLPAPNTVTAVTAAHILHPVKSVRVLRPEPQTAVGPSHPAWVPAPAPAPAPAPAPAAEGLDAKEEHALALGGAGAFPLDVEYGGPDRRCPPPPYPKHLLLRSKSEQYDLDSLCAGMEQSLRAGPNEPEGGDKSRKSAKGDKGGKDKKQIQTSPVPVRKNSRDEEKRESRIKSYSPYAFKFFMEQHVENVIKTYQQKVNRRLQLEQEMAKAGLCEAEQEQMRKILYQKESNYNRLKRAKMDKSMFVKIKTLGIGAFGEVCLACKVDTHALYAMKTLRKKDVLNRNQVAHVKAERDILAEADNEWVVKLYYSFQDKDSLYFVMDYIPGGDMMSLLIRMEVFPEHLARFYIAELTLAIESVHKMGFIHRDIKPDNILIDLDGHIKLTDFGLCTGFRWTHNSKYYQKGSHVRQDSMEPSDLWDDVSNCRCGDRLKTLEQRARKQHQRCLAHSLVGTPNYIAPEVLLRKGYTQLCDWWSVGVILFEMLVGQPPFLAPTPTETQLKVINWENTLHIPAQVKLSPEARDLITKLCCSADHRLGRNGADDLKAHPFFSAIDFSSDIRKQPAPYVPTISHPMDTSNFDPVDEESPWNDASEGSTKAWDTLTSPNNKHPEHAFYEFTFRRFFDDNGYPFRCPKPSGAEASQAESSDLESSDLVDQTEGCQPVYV
Experimental: (§1) Ambit profiling was conducted in accordance with the manufacturer's instructions.

various enzymes [2] = target: various enzymes (Homo sapiens, UniProt P54764)
Experimental: as §1

various enzymes [3] = target: T2, various enzymes (Homo sapiens, UniProt O14733)
T2 sequence (O14733 1-419): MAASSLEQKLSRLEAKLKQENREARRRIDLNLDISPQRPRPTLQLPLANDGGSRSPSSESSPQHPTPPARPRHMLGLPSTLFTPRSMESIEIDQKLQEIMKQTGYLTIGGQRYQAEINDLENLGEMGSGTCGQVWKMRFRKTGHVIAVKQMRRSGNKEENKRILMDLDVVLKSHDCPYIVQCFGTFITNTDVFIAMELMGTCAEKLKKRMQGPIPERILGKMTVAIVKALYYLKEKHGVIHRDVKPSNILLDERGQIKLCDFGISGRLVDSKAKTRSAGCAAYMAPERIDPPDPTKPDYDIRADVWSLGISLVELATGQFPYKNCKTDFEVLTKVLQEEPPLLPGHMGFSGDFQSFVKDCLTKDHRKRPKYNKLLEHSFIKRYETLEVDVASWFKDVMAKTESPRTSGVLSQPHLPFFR
Experimental: as §1

various enzymes [4] = target: various enzymes (Homo sapiens, UniProt Q8NI60)
Experimental: as §1

various enzymes [5] = target: various enzymes (Homo sapiens, UniProt P21127)
Experimental: as §1

various enzymes [6] = target: various enzymes (Homo sapiens, UniProt Q6XUX3)
Experimental: as §1

various enzymes [7] = target: various enzymes (Homo sapiens, UniProt P27448)
Experimental: as §1

various enzymes [8] = target: various enzymes (Homo sapiens, UniProt Q04759)
Experimental: as §1

various enzymes [9] = target: various enzymes (Homo sapiens, UniProt P36507)
Experimental: as §1

various enzymes [10] = target: various enzymes (Homo sapiens, UniProt O75716)
Experimental: as §1

various enzymes [11] = target: various enzymes (Homo sapiens, UniProt Q9H0K1)
Experimental: as §1

various enzymes [12] = target: various enzymes (Homo sapiens, UniProt Q86UE8)
Experimental: as §1

various enzymes [13] = target: T3, various enzymes (Homo sapiens, UniProt Q12852)
T3 sequence (Q12852 1-859): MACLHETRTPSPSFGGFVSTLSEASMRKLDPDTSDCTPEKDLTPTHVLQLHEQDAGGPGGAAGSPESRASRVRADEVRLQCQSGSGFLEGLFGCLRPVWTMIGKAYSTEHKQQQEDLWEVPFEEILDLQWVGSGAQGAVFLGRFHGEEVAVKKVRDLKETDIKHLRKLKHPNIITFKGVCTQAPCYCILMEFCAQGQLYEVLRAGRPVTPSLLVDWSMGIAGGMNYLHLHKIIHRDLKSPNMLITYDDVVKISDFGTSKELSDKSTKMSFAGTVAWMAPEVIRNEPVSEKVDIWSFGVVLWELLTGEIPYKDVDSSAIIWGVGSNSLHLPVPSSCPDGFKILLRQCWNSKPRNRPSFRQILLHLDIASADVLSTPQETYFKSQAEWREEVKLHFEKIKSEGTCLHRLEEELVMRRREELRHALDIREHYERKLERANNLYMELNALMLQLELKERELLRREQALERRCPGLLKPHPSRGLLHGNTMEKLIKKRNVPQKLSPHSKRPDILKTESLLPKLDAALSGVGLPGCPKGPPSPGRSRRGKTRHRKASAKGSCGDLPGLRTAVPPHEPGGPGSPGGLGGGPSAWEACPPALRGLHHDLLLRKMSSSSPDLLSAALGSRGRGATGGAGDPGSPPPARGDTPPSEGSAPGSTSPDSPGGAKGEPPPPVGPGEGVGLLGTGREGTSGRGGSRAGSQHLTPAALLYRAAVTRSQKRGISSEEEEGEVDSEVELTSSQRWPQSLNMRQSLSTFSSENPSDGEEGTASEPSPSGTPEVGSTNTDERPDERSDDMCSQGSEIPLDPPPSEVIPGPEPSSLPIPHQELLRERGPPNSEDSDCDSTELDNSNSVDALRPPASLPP
Experimental: as §1

various enzymes (Homo sapiens, UniProt Q8NI60), sequence (Q8NI60 163-647): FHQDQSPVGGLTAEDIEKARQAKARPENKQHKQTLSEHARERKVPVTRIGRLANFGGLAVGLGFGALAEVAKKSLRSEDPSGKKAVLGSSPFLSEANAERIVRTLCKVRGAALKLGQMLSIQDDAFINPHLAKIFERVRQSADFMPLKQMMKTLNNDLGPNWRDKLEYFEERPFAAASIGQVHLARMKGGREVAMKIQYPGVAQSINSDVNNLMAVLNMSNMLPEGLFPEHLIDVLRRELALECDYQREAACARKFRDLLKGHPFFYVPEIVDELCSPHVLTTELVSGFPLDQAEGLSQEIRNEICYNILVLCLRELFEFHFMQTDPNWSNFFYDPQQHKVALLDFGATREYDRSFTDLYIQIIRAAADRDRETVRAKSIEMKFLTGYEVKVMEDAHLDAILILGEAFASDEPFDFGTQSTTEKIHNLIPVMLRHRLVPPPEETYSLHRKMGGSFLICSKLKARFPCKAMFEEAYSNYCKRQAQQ
various enzymes (Homo sapiens, UniProt Q04759), sequence (Q04759 whole entry): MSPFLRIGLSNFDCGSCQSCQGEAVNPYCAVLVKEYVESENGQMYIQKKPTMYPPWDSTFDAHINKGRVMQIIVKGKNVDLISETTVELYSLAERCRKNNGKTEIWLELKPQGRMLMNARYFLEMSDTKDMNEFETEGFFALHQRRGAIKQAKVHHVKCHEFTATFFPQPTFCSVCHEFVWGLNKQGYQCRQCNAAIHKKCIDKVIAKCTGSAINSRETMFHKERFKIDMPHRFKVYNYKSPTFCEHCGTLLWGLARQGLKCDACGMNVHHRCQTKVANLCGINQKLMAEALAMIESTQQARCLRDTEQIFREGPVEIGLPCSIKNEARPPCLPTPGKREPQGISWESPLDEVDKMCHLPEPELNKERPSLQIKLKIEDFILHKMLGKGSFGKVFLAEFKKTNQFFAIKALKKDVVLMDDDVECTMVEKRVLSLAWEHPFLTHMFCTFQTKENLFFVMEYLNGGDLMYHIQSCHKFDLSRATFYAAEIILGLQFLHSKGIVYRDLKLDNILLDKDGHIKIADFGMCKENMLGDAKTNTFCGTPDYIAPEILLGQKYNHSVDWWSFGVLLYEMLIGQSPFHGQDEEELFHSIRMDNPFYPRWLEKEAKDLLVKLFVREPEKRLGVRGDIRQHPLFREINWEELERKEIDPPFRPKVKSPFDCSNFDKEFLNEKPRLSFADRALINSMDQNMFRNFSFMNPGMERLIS
various enzymes (Homo sapiens, UniProt Q86UE8), sequence (Q86UE8 whole entry): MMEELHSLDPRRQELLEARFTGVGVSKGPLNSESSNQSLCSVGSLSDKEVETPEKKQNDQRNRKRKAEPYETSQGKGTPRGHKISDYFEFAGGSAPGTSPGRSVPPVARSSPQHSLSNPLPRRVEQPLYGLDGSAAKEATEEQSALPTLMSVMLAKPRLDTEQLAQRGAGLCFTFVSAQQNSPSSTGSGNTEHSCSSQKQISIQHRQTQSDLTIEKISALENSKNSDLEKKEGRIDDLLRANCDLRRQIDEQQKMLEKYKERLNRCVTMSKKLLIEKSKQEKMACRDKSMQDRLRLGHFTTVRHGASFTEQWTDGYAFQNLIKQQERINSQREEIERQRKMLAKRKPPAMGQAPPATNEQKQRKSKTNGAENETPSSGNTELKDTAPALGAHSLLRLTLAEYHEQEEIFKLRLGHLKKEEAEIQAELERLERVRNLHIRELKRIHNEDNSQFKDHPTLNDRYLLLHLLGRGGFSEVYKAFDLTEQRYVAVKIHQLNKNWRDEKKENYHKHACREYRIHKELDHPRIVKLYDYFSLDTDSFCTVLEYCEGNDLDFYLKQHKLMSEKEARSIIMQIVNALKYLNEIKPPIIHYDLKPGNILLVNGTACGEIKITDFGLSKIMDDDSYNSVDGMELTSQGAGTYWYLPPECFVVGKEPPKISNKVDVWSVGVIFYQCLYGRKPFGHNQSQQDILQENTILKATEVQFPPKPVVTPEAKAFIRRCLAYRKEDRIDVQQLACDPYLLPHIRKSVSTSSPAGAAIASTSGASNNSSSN
various enzymes (Homo sapiens, UniProt P54764), sequence (P54764 20-986): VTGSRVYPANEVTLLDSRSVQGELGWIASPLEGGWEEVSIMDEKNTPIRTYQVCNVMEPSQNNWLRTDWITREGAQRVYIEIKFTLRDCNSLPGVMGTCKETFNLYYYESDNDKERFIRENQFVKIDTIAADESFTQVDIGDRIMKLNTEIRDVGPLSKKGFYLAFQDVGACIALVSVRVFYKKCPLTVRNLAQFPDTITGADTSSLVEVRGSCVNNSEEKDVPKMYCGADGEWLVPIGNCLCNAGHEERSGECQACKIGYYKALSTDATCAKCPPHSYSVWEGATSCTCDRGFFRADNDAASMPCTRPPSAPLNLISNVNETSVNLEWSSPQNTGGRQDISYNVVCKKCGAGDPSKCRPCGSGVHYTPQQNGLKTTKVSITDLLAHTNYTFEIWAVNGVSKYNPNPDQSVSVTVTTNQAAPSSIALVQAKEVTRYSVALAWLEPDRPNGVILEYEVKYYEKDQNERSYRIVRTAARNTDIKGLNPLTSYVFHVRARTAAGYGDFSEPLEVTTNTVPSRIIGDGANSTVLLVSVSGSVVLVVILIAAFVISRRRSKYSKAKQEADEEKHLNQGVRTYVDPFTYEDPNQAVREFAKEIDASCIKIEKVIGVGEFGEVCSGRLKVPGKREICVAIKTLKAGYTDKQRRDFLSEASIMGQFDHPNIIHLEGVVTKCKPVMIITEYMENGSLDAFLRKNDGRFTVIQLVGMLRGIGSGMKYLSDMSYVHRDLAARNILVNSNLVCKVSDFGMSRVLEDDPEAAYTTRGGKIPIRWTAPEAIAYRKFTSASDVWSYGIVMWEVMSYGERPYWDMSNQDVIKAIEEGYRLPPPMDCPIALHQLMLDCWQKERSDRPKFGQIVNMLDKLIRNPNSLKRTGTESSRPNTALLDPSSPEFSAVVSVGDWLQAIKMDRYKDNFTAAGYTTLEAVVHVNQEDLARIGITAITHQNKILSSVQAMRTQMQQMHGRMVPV
various enzymes (Homo sapiens, UniProt Q6XUX3), sequence (Q6XUX3 whole entry): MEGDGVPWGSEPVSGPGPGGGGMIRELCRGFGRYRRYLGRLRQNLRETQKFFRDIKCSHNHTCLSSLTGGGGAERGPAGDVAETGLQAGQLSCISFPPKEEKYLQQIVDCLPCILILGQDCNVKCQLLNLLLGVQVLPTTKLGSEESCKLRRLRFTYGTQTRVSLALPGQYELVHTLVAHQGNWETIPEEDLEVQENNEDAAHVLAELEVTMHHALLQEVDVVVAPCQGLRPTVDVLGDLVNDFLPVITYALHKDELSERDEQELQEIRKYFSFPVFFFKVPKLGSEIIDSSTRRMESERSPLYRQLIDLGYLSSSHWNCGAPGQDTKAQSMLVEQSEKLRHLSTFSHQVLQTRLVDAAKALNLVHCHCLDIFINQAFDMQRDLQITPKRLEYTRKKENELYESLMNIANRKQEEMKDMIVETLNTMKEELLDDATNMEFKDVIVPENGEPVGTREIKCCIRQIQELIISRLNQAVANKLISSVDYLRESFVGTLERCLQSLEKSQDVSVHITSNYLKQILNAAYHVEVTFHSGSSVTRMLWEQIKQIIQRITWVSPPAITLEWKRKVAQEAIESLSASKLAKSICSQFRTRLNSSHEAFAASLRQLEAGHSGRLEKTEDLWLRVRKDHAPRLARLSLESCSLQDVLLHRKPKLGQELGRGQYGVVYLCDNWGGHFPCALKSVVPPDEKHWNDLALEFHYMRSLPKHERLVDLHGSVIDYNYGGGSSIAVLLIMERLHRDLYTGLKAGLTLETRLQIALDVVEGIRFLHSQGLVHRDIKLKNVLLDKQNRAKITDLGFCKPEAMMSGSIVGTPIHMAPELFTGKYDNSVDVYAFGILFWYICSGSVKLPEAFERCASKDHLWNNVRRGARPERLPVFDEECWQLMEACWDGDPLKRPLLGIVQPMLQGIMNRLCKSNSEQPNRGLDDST
various enzymes (Homo sapiens, UniProt O75716), sequence (O75716 whole entry): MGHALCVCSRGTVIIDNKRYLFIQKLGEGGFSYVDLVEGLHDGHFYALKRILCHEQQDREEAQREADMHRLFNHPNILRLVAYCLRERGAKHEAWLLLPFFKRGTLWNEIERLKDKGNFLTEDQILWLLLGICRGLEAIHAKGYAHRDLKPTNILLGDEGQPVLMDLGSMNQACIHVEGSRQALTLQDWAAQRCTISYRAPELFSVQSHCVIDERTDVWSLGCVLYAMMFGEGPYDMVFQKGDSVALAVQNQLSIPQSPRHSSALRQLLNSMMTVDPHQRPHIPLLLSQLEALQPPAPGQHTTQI
various enzymes (Homo sapiens, UniProt P27448), sequence (P27448 whole entry): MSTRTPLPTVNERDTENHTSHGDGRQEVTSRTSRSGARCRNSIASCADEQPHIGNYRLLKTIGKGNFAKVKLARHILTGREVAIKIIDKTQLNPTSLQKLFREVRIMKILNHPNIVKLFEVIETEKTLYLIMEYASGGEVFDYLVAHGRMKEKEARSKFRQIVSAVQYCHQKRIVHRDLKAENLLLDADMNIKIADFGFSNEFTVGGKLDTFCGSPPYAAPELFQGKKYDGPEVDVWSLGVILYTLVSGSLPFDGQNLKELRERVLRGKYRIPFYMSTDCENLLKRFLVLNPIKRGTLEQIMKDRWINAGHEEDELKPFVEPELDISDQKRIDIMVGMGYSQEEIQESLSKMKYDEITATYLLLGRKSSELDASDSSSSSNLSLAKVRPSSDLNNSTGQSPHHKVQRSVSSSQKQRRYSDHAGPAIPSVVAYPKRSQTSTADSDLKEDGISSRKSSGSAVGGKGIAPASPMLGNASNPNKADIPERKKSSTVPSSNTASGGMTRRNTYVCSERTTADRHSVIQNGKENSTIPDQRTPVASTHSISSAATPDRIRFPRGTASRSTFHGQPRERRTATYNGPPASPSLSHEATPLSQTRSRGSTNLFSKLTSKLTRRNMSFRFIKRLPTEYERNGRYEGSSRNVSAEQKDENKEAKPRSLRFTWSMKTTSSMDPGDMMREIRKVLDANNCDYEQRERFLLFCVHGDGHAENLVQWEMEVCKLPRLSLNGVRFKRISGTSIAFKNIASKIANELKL

Row | Structure (SMILES) | Ambit profiling: LATS2 (various enzymes [1]) | Ambit profiling: EPHA4 (various enzymes [2]) | Ambit profiling: MKK7 (various enzymes [3]) | Ambit profiling: ADCK3 (various enzymes [4]) | Ambit profiling: CDC2L1 (various enzymes [5]) | Ambit profiling: RIPK5 (various enzymes [6]) | Ambit profiling: MARK3 (various enzymes [7]) | Ambit profiling: PRKCQ (various enzymes [8]) | Ambit profiling: MEK2 (various enzymes [9]) | Ambit profiling: STK16 (various enzymes [10]) | Ambit profiling: SIK2 (various enzymes [11]) | Ambit profiling: TLK2 (various enzymes [12]) | Ambit profiling: DLK (various enzymes [13])
1 | CC(C)N1Cc2nn(C)cc2-c2cnc3[nH]cc(c3c2)-c2cn(nc2C(F)(F)F)CCCC1=O [Compound 45, (Z)-5-isopropyl-31-methyl-13-(trifluoromethyl)-11H,21H,31H-5-aza-2(3,5)-pyrrolo[2,3-b]pyridina-1(4,1),3(4,3)-dipyrazolacyclononaphan-6-one] | 100 | 88 | 76 | 100 | 100 | 27 | 32 | 27 | 12 | 1.9 | 27 | 86 | 32
2 | COc1c2c(nn1C)CN(C(C)C)C(=O)CCCn1cc(c(C(F)(F)F)n1)-c1c[nH]c3ncc-2cc13 [Compound 50, (Z)-5-isopropyl-35-methoxy-31-methyl-13-(trifluoromethyl)-11H,21H,31H-5-aza-2(3,5)-pyrrolo[2,3-b]pyridina-1(4,1),3(4,3)-dipyrazolacyclononaphan-6-one] | 97 | 63 | 80 | 73 | 73 | 95 | 43 | 13 | 11 | 12 | 32 | 91 | 25
